The values that follow come from patent US10173991B2, “Sulfone amide linked benzothiazole inhibitors of endothelial lipase” (BRISTOL-MYERS SQUIBB COMPANY, priority 2014, dated 2019).

Molecules are shown by their SMILES.

This experiment deals with Endothelial lipase (EL) (Homo sapiens (Human), UniProt Q9Y5X9). Description: Endothelial lipase (EL) enzymatic assay with fluorescent substrate A10070 in DMPG vesicles. It counts as biochemical. Summed up:
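Substrate A10070 sits in sonicated DMPG vesicles at 0.11 mole fraction. Lipase and compound preincubated 30 min, 37° C, in HEPES pH 8.0 buffer with CaCl2.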

Endothelial lipase (EL), sequence (Q9Y5X9 21-500): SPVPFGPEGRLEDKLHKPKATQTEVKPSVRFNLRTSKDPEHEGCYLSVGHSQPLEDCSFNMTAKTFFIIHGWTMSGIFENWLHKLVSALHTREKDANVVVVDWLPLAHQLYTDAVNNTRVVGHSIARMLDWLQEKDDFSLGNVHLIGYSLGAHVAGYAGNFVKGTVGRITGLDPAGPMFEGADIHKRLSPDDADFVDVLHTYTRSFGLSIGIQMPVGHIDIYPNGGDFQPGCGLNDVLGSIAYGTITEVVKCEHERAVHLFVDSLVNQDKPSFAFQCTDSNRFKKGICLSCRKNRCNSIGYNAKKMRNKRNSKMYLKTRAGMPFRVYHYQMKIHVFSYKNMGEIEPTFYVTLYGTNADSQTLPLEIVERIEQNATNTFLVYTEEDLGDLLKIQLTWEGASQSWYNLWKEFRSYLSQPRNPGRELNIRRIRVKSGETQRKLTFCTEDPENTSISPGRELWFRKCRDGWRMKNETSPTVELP

With `CC(C)S(=O)(=O)C(C(=O)NCC(=O)NC1CC1)c1nc2cc(C(F)(F)F)c(-c3ccnn3C)cc2s1` (stereo not drawn) [Example 180, N-[(cyclopropyl-carbamoyl)methyl]-2-[6-(1-methyl-1H-pyrazol-5-yl)-5-(trifluoromethyl)-1,3-benzothiazol-2-yl]-2-(propane-2-sulfonyl) acetamide], the IC50 – broadly, the midpoint of a concentration-inhibition curve – turned out to be 88 nM.

Compound `COCCS(=O)(=O)C(C(=O)NCC(=O)NC1CC1)c1nc2cc(F)c(-c3cccc(F)n3)cc2s1` (stereo not drawn) [Example 181, N-[(cyclopropyl-carbamoyl)methyl]-2-[5-fluoro-6-(6-fluoropyridin-2-yl)-1,3-benzothiazol-2-yl]-2-(2-methoxyethane-sulfonyl) acetamide] returned an IC50 of 143 nM.

As to `COCCS(=O)(=O)C(C(=O)NCC(=O)NC1CC1)c1nc2cc(-c3ccc(F)nc3)c(C)cc2s1` (stereo not drawn) [Example 182, N-[(cyclopropyl-carbamoyl)methyl]-2-[5-(6-fluoropyridin-3-yl)-6-methyl-1,3-benzothiazol-2-yl]-2-(2-methoxyethane-sulfonyl) acetamide], the half-maximal inhibitory concentration (IC50) turned out to be 21 nM.

The compound `COCCS(=O)(=O)C(C(=O)NCC(=O)NC1CC1)c1nc2cc(-c3cncnc3)c(C)cc2s1` (stereo not drawn) [Example 183, N-[(cyclopropyl-carbamoyl)methyl]-2-(2-methoxyethane-sulfonyl)-2-[6-methyl-5-(pyrimidin-5-yl)-1,3-benzothiazol-2-yl]acetamide] yielded an IC50 of 39 nM. This IC50 is about 1.9-fold higher than that of the compound before.

For `COCCS(=O)(=O)C(C(=O)NCC(=O)NC1CC1)c1nc2cc(-c3cnc(C)nc3)c(C)cc2s1` (stereo not drawn) [Example 184, N-[(cyclopropyl-carbamoyl)methyl]-2-(2-methoxyethane-sulfonyl)-2-[6-methyl-5-(2-methylpyrimidin-5-yl)-1,3-benzothiazol-2-yl]acetamide], the IC50 turned out to be 29 nM.

Turning to `COCCS(=O)(=O)C(C(=O)NCC(=O)NC1CC1)c1nc2cc(C)c(-c3ccc(F)nc3)cc2s1` (stereo not drawn) [Example 185, N-[(cyclopropyl-carbamoyl)methyl]-2-[6-(6-fluoropyridin-3-yl)-5-methyl-1,3-benzothiazol-2-yl]-2-(2-methoxyethane-sulfonyl) acetamide], the IC50 came to 4 nM.

Turning to `COCCS(=O)(=O)C(C(=O)NCC(=O)NC1CC1)c1nc2cc(C)c(-c3cnnc(C)c3)cc2s1` (stereo not drawn) [Example 186, N-[(cyclopropyl-carbamoyl)methyl]-2-(2-methoxyethane-sulfonyl)-2-[5-methyl-6-(6-methylpyridazin-4-yl)-1,3-benzothiazol-2-yl]acetamide], the IC50 was determined as 40 nM.

Consider `COCCS(=O)(=O)C(C(=O)NCC(=O)NC1CC1)c1nc2cc(C(F)(F)F)c(-c3cnnc(C)c3)cc2s1` (stereo not drawn) [Example 187, N-[(cyclopropyl-carbamoyl)methyl]-2-(2-methoxyethane-sulfonyl)-2-[6-(6-methylpyridazin-4-yl)-5-(trifluoromethyl)-1,3-benzothiazol-2-yl]acetamide], for which half-maximal inhibition (IC50) was put at 229 nM.

`COCCS(=O)(=O)C(C(=O)NCC(=O)NC1CC1)c1nc2cc(C(F)(F)F)c(-c3ccc(=O)n(C(C)C)c3)cc2s1` (stereo not drawn) [Example 188, N-[(cyclopropyl-carbamoyl)methyl]-2-(2-methoxyethane-sulfonyl)-2-{6-[6-oxo-1-(propan-2-yl)-1,6-dihydropyridin-3-yl]-5-(trifluoromethyl)-1,3-benzothiazol-2-yl}acetamide]: the half-inhibitory concentration (IC50) came to 37 nM.

For `COCCS(=O)(=O)C(C(=O)NCC(=O)NC1CC1)c1nc2cc(C)c(-c3ccc4c(=O)n(C)ccc4c3)cc2s1` (stereo not drawn) [Example 189, N-[(cyclopropyl-carbamoyl)methyl]-2-(2-methoxyethane-sulfonyl)-2-[5-methyl-6-(2-methyl-1-oxo-1,2-dihydro-isoquinolin-6-yl)-1,3-benzothiazol-2-yl]acetamide], the IC50 worked out at 4 nM.

`CS(=O)(=O)C(C(=O)NCC(=O)NC1CC1)c1nc2cc(F)c(-c3ccc(F)nc3)cc2s1` (stereo not drawn) [Example 190, N-[(cyclopropyl-carbamoyl)methyl]-2-[5-fluoro-6-(6-fluoropyridin-3-yl)-1,3-benzothiazol-2-yl]-2-methanesulfonyl-acetamide]: inhibition was half-maximal at 16 nM (IC50).

In the case of `Cc1ccc(-c2cc3sc(C(C(=O)NCC(=O)NC4CC4)S(C)(=O)=O)nc3cc2F)cn1` (stereo not drawn) [Example 191, N-[(cyclopropyl-carbamoyl)methyl]-2-[5-fluoro-6-(6-methylpyridin-3-yl)-1,3-benzothiazol-2-yl]-2-methanesulfonyl-acetamide], half-maximal inhibition (IC50) was put at 9 nM. Against the preceding compound, the IC50 is about 1.8-fold lower.

In turn, `CS(=O)(=O)C(C(=O)NCC(=O)NC1CC1)c1nc2cc(F)c(-c3cnc(C4CC4)nc3)cc2s1` (stereo not drawn) [Example 192, N-[(cyclopropyl-carbamoyl)methyl]-2-[6-(2-cyclopropyl-pyrimidin-5-yl)-5-fluoro-1,3-benzothiazol-2-yl]-2-methanesulfonyl-acetamide] had an IC50 of 25 nM.

`Cn1ccc2cc(-c3cc4sc(C(C(=O)NCC(=O)NC5CC5)S(C)(=O)=O)nc4cc3F)ccc2c1=O` (stereo not drawn) [Example 193, N-[(cyclopropyl-carbamoyl)methyl]-2-[5-fluoro-6-(2-methyl-1-oxo-1,2-dihydro-isoquinolin-6-yl)-1,3-benzothiazol-2-yl]-2-methanesulfonyl-acetamide] returned an IC50 of 5 nM.

For `Cc1ncc(-c2cc3sc(C(C(=O)NCC(=O)NC4CC4)S(C)(=O)=O)nc3cc2F)cn1` (stereo not drawn) [Example 194, N-[(cyclopropyl-carbamoyl)methyl]-2-[5-fluoro-6-(2-methylpyrimidin-5-yl)-1,3-benzothiazol-2-yl]-2-methanesulfonyl-acetamide], 34 nM corresponded to half-maximal inhibition (IC50). This IC50 is about 6.8-fold higher than that of the compound before.

`CC(C)n1cc(-c2cc3sc(C(C(=O)NCC(=O)NC4CC4)S(C)(=O)=O)nc3cc2F)ccc1=O` (stereo not drawn) [Example 195, N-[(cyclopropyl-carbamoyl)methyl]-2-{5-fluoro-6-[6-oxo-1-(propan-2-yl)-1,6-dihydropyridin-3-yl]-1,3-benzothiazol-2-yl}-2-methanesulfonyl-acetamide] returned a half-inhibitory concentration (IC50) of 23 nM.

For the compound `Cn1ncc2ccc(-c3cc4sc(C(C(=O)NCC(=O)NC5CC5)S(C)(=O)=O)nc4cc3F)cc21` (stereo not drawn) [Example 196, N-[(cyclopropyl-carbamoyl)methyl]-2-[5-fluoro-6-(1-methyl-1H-indazol-6-yl)-1,3-benzothiazol-2-yl]-2-methanesulfonyl-acetamide], the half-maximal inhibitory concentration (IC50) came out at 1 nM.

Compound `CS(=O)(=O)C(C(=O)NCC(=O)NC1CC1)c1nc2cc(F)c(-c3ccc4[nH]c(=O)ccc4c3)cc2s1` (stereo not drawn) [Example 197, N-[(cyclopropyl-carbamoyl)methyl]-2-[5-fluoro-6-(2-oxo-1,2-dihydroquinolin-6-yl)-1,3-benzothiazol-2-yl]-2-methanesulfonyl-acetamide] gave an IC50 of 3 nM. Compared with the last compound, the IC50 is about 3-fold higher.

As to `COCCS(=O)(=O)C(C(=O)NCC(=O)NC1CC1)c1nc2cc(F)c(-c3ccc4cnn(C)c4c3)cc2s1` (stereo not drawn) [Example 198, N-[(cyclopropyl-carbamoyl)methyl]-2-[5-fluoro-6-(1-methyl-1H-indazol-6-yl)-1,3-benzothiazol-2-yl]-2-(2-methoxyethane-sulfonyl) acetamide], the IC50 came to 5 nM.

Regarding `CS(=O)(=O)C(C(=O)NCC(=O)NC1CC1)c1nc2cc(F)c(-c3ccc(C#N)nc3)cc2s1` (stereo not drawn) [Example 199, 2-[6-(6-cyanopyridin-3-yl)-5-fluoro-1,3-benzothiazol-2-yl]-N-[(cyclopropyl-carbamoyl)methyl]-2-methanesulfonyl-acetamide], the half-maximal inhibitory concentration (IC50) worked out at 24 nM. Against the preceding compound, the IC50 is about 4.8-fold higher.

In turn, `CS(=O)(=O)C(C(=O)NCC(=O)NC1CC1)c1nc2cc(F)c(-c3ccc(-n4ccccc4=O)cc3)cc2s1` (stereo not drawn) [Example 200, N-[(cyclopropyl-carbamoyl)methyl]-2-{5-fluoro-6-[4-(2-oxo-1,2-dihydropyridin-1-yl)phenyl]-1,3-benzothiazol-2-yl}-2-methanesulfonyl-acetamide] displayed an IC50 of 8 nM.

On to `CS(=O)(=O)C(C(=O)NCC(=O)NC1CC1)c1nc2cc(F)c(-c3ccc(N4CCCCC4=O)cc3)cc2s1` (stereo not drawn) [Example 201, N-[(cyclopropyl-carbamoyl)methyl]-2-{5-fluoro-6-[4-(2-oxopiperidin-1-yl)phenyl]-1,3-benzothiazol-2-yl}-2-methanesulfonyl-acetamide], for which the half-inhibitory concentration (IC50) is 10 nM.

Consider `CS(=O)(=O)C(C(=O)NCC(=O)NC1CC1)c1nc2cc(F)c(-c3cnc(-c4ccccc4)nc3)cc2s1` (stereo not drawn) [Example 202, N-[(cyclopropyl-carbamoyl)methyl]-2-[5-fluoro-6-(2-phenylpyrimidin-5-yl)-1,3-benzothiazol-2-yl]-2-methanesulfonyl-acetamide], for which half-maximal inhibition (IC50) was put at 5 nM.

In turn, `CS(=O)(=O)C(C(=O)NCC(=O)NC1CC1)c1nc2cc(F)c(-c3ccc(-c4ccccc4)nc3)cc2s1` (stereo not drawn) [Example 203, N-[(cyclopropyl-carbamoyl)methyl]-2-[5-fluoro-6-(6-phenylpyridin-3-yl)-1,3-benzothiazol-2-yl]-2-methanesulfonyl-acetamide] registered a half-inhibitory concentration (IC50) of 3 nM. Compared with the last compound, the IC50 is about 1.7-fold lower.

As for `Cc1cc2nc(C(C(=O)NCC(=O)NC3CC3)S(=O)(=O)C(C)C)sc2cc1-c1ccc2[nH]c(=O)ccc2c1` (stereo not drawn) [Example 204, N-[(cyclopropyl-carbamoyl)methyl]-2-[5-methyl-6-(2-oxo-1,2-dihydroquinolin-6-yl)-1,3-benzothiazol-2-yl]-2-(propane-2-sulfonyl) acetamide], the IC50 was 2 nM.

`O=C(CNC(=O)C(c1nc2ccc(-c3ccc(OCC4CC4)nc3)cc2s1)S(=O)(=O)Cc1ccc(F)cc1)NC1CC1` (stereo not drawn) [Example 205, N-[(cyclopropyl-carbamoyl)methyl]-2-{6-[6-(cyclopropyl-methoxy)pyridin-3-yl]-1,3-benzothiazol-2-yl}-2[(4-fluorophenyl)methanesulfonyl] acetamide] registered an IC50 of 8 nM.

The compound `COCCS(=O)(=O)C(C(=O)NCC(=O)NC1CC1)c1nc2c(F)cc(-c3cnc(OC)c(F)c3)cc2s1` (stereo not drawn) [Example 206, N-[(cyclopropyl-carbamoyl)methyl]-2-[4-fluoro-6-(5-fluoro-6-methoxypyridin-3-yl)-1,3-benzothiazol-2-yl]-2-(2-methoxyethane-sulfonyl) acetamide] returned an IC50 of 9 nM.
